Values after ≈ are worked out from the molar mass of the structure shown.
Legend:
Type in all cases: cell-based, human
[1] = system: platelet aggregation in platelet-rich plasma, agonist ADP; experiment: ADP-induced platelet aggregation in platelet-rich plasma (aggregometer); details: ADP 10 μmol/L; for IC50: Homo sapiens, Platelet
Protocol: (§1) The experimental protocol described below was devised to determine the IC50 values of compounds isolated as described in 1.1.3. Crude bioassays to evaluate inhibition of platelet aggregation in vitro were performed on some crude extracts (data not shown) to help select fine fractions/compounds identified by HPLC for functional activity. This approach was considered necessary to avoid the need to assay each and ever compound (the would be thousands) in the fruit extracts.
(§2) An IC50 value represents the amount of a compound, in mg, required to inhibit by 50% the platelet aggregation induced under standardised conditions in 1 mL platelet-rich plasma, in comparison with control samples.
(§3) Blood for in vitro studies was collected from drug-free, healthy human volunteers, both male and female, aged 18-60 years, with normal platelet function. Subjects declared that they had not consumed drugs or supplements known to affect platelet function for a minimum of 10 days before providing a blood sample. Blood was collected after single venepuncture to an antecubital vein through siliconized needles into plastic citrated blood collection tubes (Sarstedt Monovettes, final concentration sodium citrate, 13 mmol/L). All blood was maintained at 37° C. from the time of blood sampling.
(§4) Platelet-rich plasma (PRP) was obtained by centrifugation of citrated blood for 15 minutes at 200×g, and was adjusted with platelet-poor plasma to a standard platelet number of 320±20×10^9/L prior to use. PRP was used for platelet function measurements within two hours.
(§5) The following agonists were used for platelet function measurements. Adenosine diphosphate (ADP), final concentration 10 μmol/L; collagen, final concentration 5 mg/L; arachidonic acid, final concentration […] (all from Helena Biosciences, Sunderland, UK); thrombin receptor-activating peptide (TRAP), final concentration […] (Sigma-Aldrich, Poole, UK). Agonists were prepared from stock solutions immediately before use, diluting into warmed physiological saline (0.9% NaCI).
(§6) Individual platelet inhibitors were prepared at a concentration of between 500 g/L and 100 g/L in either physiological saline, ultra-pure methanol or ultra-pure DMSO (Sigma-Aldrich, Poole, UK) and stored frozen until required. Stock solutions were then diluted with physiological saline immediately prior to use.
(§7) 450 μL PRP was incubated with 50 μL diluted inhibitor solution at 37° C. for 10 minutes, in low-retention epindorrfs. Inhibitor solutions were diluted such that the final concentration of methanol or DMSO in the PRP sample never exceeded 2%. Suitable control samples, containing 50 μL physiological saline matched for methanol or DMSO content as appropriate, were incubated simultaneously. For each inhibitor compound, 5 incubation concentrations were used; final concentrations of 0.05 mg/mL, 0.10 mg/mL, 1.00 mg/mL, 5.00 mg/mL and 10 mg/mL were used as standard.
(§8) After incubation with platelet inhibitors, PRP samples were transferred to glass cuvettes and the extent of aggregation induced by either ADP, collagen, TRAP or arachidonic acid was monitored over 10 minutes on a platelet aggregometer (PACKS 4, Helena Biosciences, Sunderland, UK). A control sample was run with each sample set. From the aggregation curves generated, the area under the curve was calculated for each PRP sample, and the inhibition of aggregation achieved at each inhibitor concentration was calculated by comparing the area under the curve for these PRP samples with that of the control sample. The inhibition of aggregation was expressed as % inhibition, compared to control, and from the 6 data points obtained per inhibitor compound, a dose-response curve was constructed. This curve was then used to predict the IC50 value for that inhibitor compound, as shown in 1.2, Results, and FIG. 1.
(§9) For each blood sample obtained, 6-point dose-response curves for 2 different inhibitory compounds could be generated. […]

[2] = system: platelet aggregation in platelet-rich plasma, agonist thrombin receptor-activating peptide (TRAP); experiment: TRAP-induced platelet aggregation in platelet-rich plasma (aggregometer); details: TRAP 25 nmol/L; for IC50: Homo sapiens, Platelet
Protocol: as §1, §2, §3, §4, §5, §6, §7, §8, §9

[3] = system: platelet aggregation in platelet-rich plasma, agonist collagen; experiment: Collagen-induced platelet aggregation in platelet-rich plasma (aggregometer); details: collagen 5 mg/L; for IC50: Homo sapiens, Platelet
Protocol: as §1, §2, §3, §4, §5, §6, §7, §8, §9

[4] = system: platelet aggregation in platelet-rich plasma, agonist arachidonic acid; experiment: Arachidonic acid-induced platelet aggregation in platelet-rich plasma (aggregometer); details: arachidonic acid 500 U/L; for IC50: Homo sapiens, Platelet
Protocol: as §1, §2, §3, §4, §5, §6, §7, §8, §9

[5] = Table 3, mg needed for 50% inhibition in 1 mL PRP, compounds isolated from tomato extract
[6] = Table 4, compounds from sources other than tomatoes, mg per 1 mL PRP

Molecule | IC50 [1, 6] | IC50 [2, 6] | IC50 [3, 6] | IC50 [4, 6] | other results
Nc1ncnc2c1ncn2[C@@H]1O[C@H](CO)[C@@H](O)[C@H]1O [Compound 2, Adenosine] |  |  |  |  | IC50 [1, 5]: 0.4 mg/mL (≈ 1.5 mM); IC50 [2, 5]: > 50 mg/mL; IC50 [3, 5]: 0.82 mg/mL (≈ 3.07 mM)
O=c1c(O)c(-c2cc(O)c(O)c(O)c2)oc2cc(O)cc(O)c12 [Myricetin] | 22.1 mg/mL (≈ 69.6 mM) | 12.9 mg/mL (≈ 40.6 mM) | 24.6 mg/mL (≈ 77.3 mM) | 0.22 mg/mL (≈ 0.691 mM) | 
O=C(/C=C/c1ccc(O)c(O)c1)O[C@@H]1C[C@](O)(C(=O)O)C[C@@H](O)[C@H]1O [Compound 14, Chlorogenic acid] |  |  |  |  | IC50 [1, 5]: 10.1 mg/mL (≈ 28.4 mM); IC50 [2, 5]: 1.1 mg/mL (≈ 3.1 mM); IC50 [3, 5]: 10.1 mg/mL (≈ 28.5 mM); IC50 [4, 5]: 0.77 mg/mL (≈ 2.17 mM)
O=c1ccn([C@@H]2O[C@H](CO)[C@@H](O)[C@H]2O)c(=O)[nH]1 [Compound 3, Uridine] |  |  |  |  | IC50 [2, 5]: > 50 mg/mL
Naringin [Compound 26] |  |  |  |  | IC50 ADP [1, 5]: 28.1 mg; IC50 TRAP [2, 5]: 9.13 mg; IC50 Collagen [3, 5]: 29.55 mg; IC50 AA [4, 5]: 0.31 mg
Nc1nc2c(ncn2[C@@H]2O[C@H](COP(=O)(O)O)[C@@H](O)[C@H]2O)c(=O)[nH]1 [Guanosine 5′-monophosphate] | 0.1 mg/mL (≈ 0.275 mM) | 20.1 mg/mL (≈ 55.4 mM) | 0.31 mg/mL (≈ 0.853 mM) | 0.36 mg/mL (≈ 0.991 mM) | 
COc1cc(/C=C/C(=O)O)cc(OC)c1O [Sinapic acid] | 26.1 mg/mL (≈ 116 mM) | 30.4 mg/mL (≈ 135 mM) | 24.9 mg/mL (≈ 111 mM) | 24.8 mg/mL (≈ 110 mM) | 
O=c1cc(-c2ccc(O)c(O)c2)oc2cc(O)cc(O)c12 [Luteolin] | > 50 mg/mL | 26.2 mg/mL (≈ 91.5 mM) | > 50 mg/mL | 5.18 mg/mL (≈ 18.1 mM) | 
O=C1C[C@@H](c2ccc(O)cc2)Oc2cc(O)cc(O)c21 [Compound 32, Naringenin] |  |  |  |  | IC50 [1, 5]: > 50 mg/mL; IC50 [3, 5]: > 50 mg/mL
Nc1ncnc2c1ncn2[C@@H]1O[C@H](COP(=O)(O)O)[C@@H](O)[C@H]1O [Compound 6, Adenosine 5′-monophospate] |  |  |  |  | IC50 ADP [1, 5]: 0.12 mg; IC50 TRAP [2, 5]: 24.51 mg; IC50 Collagen [3, 5]: 0.28 mg; IC50 AA [4, 5]: 2.41 mg
O=c1c(O)c(-c2ccc(O)c(O)c2)oc2cc(O)cc(O)c12 [Compound 30, Quercetin] |  |  |  |  | IC50 [1, 5]: > 50 mg/mL; IC50 [3, 5]: > 50 mg/mL
OC[C@H]1O[C@@H](n2cnc3c(O)ncnc32)[C@H](O)[C@@H]1O [Inosine] | 3.5 mg/mL (≈ 13 mM) | > 50 mg/mL | 9.3 mg/mL (≈ 34.7 mM) |  | 
C[C@@H]1O[C@@H](OC[C@H]2O[C@@H](Oc3c(-c4ccc(O)c(O)c4)oc4cc(O)cc(O)c4c3=O)[C@H](O)[C@@H](O)[C@@H]2O)[C@H](O)[C@H](O)[C@H]1O [Compound 27, Rutin] |  |  |  |  | IC50 [4, 5]: 0.41 mg/mL (≈ 0.672 mM)
COc1cc(C(=O)O)cc(OC)c1O [Syringic acid] | 37.2 mg/mL (≈ 188 mM) | 28.3 mg/mL (≈ 143 mM) | 30.8 mg/mL (≈ 155 mM) | 22.5 mg/mL (≈ 113 mM) | 
O=C(O)c1ccccc1 [Compound 20, Benzoic acid] |  |  |  |  | IC50 [1, 5]: 25.1 mg/mL (≈ 206 mM); IC50 [2, 5]: 18.2 mg/mL (≈ 149 mM); IC50 [3, 5]: 17.7 mg/mL (≈ 145 mM); IC50 [4, 5]: 15.5 mg/mL (≈ 127 mM)
C[C@@H]1O[C@@H](Oc2c(-c3ccc(O)c(O)c3)oc3cc(O)cc(O)c3c2=O)[C@H](O)[C@H](O)[C@H]1O [Quercitrin] | > 50 mg/mL | 16 mg/mL (≈ 35.6 mM) | > 50 mg/mL | 12 mg/mL (≈ 26.8 mM) | 
O=c1c(O)c(-c2ccc(O)cc2)oc2cc(O)cc(O)c12 [Compound 31, Kaempferol] |  |  |  |  | IC50 [1, 5]: > 50 mg/mL; IC50 [3, 5]: > 50 mg/mL
O=C(O)C=Cc1ccccc1 [Compound 22, Cinnamic acid] | 26.1 mg/mL (≈ 176 mM) | 18.2 mg/mL (≈ 123 mM) | 8.76 mg/mL (≈ 59.1 mM) | 16.1 mg/mL (≈ 109 mM) | IC50 [4, 5]: 0.22 mg/mL (≈ 1.48 mM)
O=C(O)/C=C/c1ccccc1O [o-Coumaric acid] | 32.2 mg/mL (≈ 196 mM) | 17.4 mg/mL (≈ 106 mM) | 28.9 mg/mL (≈ 176 mM) | 9.48 mg/mL (≈ 57.7 mM) | 
O=C(O)c1ccc(O)c(O)c1 [Protocatechuic acid] | 30.2 mg/mL (≈ 196 mM) | 30.8 mg/mL (≈ 200 mM) | 23.7 mg/mL (≈ 154 mM) | 25.6 mg/mL (≈ 166 mM) | 
Nc1nc2c(ncn2[C@@H]2O[C@H](CO)[C@@H](O)[C@H]2O)c(=O)[nH]1 [Compound 4, Guanosine] |  |  |  |  | IC50 [1, 5]: 0.25 mg/mL (≈ 0.883 mM); IC50 [3, 5]: 0.53 mg/mL (≈ 1.87 mM); IC50 [4, 5]: 0.91 mg/mL (≈ 3.21 mM)
O=C(O)c1cc(O)c(O)c(O)c1 [Gallic acid] | 20.2 mg/mL (≈ 119 mM) | 18.9 mg/mL (≈ 111 mM) | 14.4 mg/mL (≈ 84.5 mM) | 14.4 mg/mL (≈ 84.9 mM) | 
Quercetin-3-O-glycoside [Compound 23] |  |  |  |  | IC50 ADP [1, 5]: 25.18 mg; IC50 TRAP [2, 5]: 12.06 mg; IC50 Collagen [3, 5]: 28.43 mg; IC50 AA [4, 5]: 0.19 mg
Nc1ncnc2c1ncn2[C@@H]1O[C@H](CO)[C@@H](OP(=O)(O)O)[C@H]1O [Compound 5, Adenosine 3′-monophospate] |  |  |  |  | IC50 ADP [1, 5]: 0.12 mg; IC50 TRAP [2, 5]: 24.51 mg; IC50 Collagen [3, 5]: 0.28 mg; IC50 AA [4, 5]: 2.41 mg

From patent US20110212913A1, “THERAPEUTIC COMPOSITIONS COMPRISING PHENOLIC ACIDS FOR TREATING CONDITIONS RELATED TO INAPPROPRIATE PLATELET AGGREGATION” (PROVEXIS NATURAL PRODUCTS LIMITED, priority 2008, published 2011)
